# Laboratory results as given in patent US7851626B2, “4,4,5,5, tetrasubstituted imidazolines” (Hoffmann-La Roche Inc., priority 2005, dated 2010).
# pIC50: −log10 of the molar value.
# Molecular target: interaction between p53 and MDM2 proteins (Homo sapiens, UniProt Q00987)
# Test: HTRF assay of inhibition of the p53-MDM2 interaction (GST-MDM2 and biotinylated p53 peptide)
# Assay type: binding
# Settings: recombinant GST-tagged MDM2, biotinylated p53 peptide, 37° C. for 1 h
# Description: The ability of the compounds to inhibit the interaction between p53 and MDM2 proteins was measured by an HTRF (homogeneous time-resolved fluorescence) assay in which recombinant GST-tagged MDM2 binds to a peptide that resembles the MDM2-interacting region of p53 (Lane et al.). Binding of GST-MDM2 protein and p53-peptide (biotinylated on its N-terminal end) is registered by the FRET (fluorescence resonance energy transfer) between Europium (Eu)-labeled anti-GST antibody and streptavidin-conjugated Allophycocyanin (APC).
# Test is performed in black flat-bottom 384-well plates (Costar) in a total volume of 40 uL containing: 90 nM biotinylate peptide, 160 ng/mL GST-MDM2, 20 nM streptavidin-APC (PerkinElmerWallac), 2 nM Eu-labeled anti-GST-antibody (PerkinElmerWallac), 0.2% bovine serum albumin (BSA), 1 mM dithiothreitol (DTT) and 20 mM Tris-borate saline (TBS) buffer as follows: Add 10 uL of GST-MDM2 (640 ng/mL working solution) in reaction buffer to each well. […] Incubate at 37° C. for 1 h. […] If not specified, the reagents were purchased from Sigma Chemical Co.
# Chain of interaction between p53 and MDM2 proteins (Q00987 whole entry): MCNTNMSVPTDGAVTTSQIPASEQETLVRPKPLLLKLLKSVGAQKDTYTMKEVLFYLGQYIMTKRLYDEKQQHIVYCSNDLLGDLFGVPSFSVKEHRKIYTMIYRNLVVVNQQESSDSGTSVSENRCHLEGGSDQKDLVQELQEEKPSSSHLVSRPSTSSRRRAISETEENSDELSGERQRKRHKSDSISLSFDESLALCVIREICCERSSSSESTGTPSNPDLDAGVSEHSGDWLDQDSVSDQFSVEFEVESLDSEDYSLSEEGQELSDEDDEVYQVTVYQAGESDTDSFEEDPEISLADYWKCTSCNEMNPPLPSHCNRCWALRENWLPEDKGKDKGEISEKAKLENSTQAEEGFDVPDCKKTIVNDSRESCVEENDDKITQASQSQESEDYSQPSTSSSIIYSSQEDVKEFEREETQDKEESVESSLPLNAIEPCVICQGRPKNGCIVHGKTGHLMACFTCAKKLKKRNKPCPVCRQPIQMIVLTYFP
row,SMILES,pIC50
1,"CCOc1cc(C(C)(C)C)ccc1C1=N[C@@](C)(c2ccc(Cl)cc2)[C@@H](c2ccc(Cl)cc2)N1C(=O)N1CCN(C(C)=O)CC1 [Example 177, 1-{4-[(4S,5R)-2-(4-tert-Butyl-2-ethoxy-phenyl)-4,5-bis-(4-chloro-phenyl)-4-methyl-4,5-dihydro-imidazole-1-carbonyl]-piperazin-1-yl}-ethanone]",6.97
2,"COc1ccc(C2=N[C@@](C)(c3ccc(Cl)cc3)[C@@H](c3ccc(Cl)cc3)N2C(=O)N2CCN(C(C)=O)CC2)c(OC(C)C)c1 (racemic) [Example 190, rac-1-{4-[(4S*,5R*)-4,5-Bis-(4-chloro-phenyl)-2-(2-isopropoxy-4-methoxy-phenyl)-4-methyl-4,5-dihydro-imidazole-1-carbonyl]-piperazin-1-yl}-ethanone]",7.32
3,"CCOc1cc(S(=O)(=O)N2CCCC2)ccc1C1=N[C@@](C)(c2ccc(Cl)cc2)[C@@](C)(c2ccc(Cl)cc2)N1C(=O)N1CCN(CC(N)=O)CC1 [Example 35, 2-(4-{(4S,5R)-4,5-Bis-(4-chloro-phenyl)-2-[2-ethoxy-4-(pyrrolidine-1-sulfonyl)-phenyl]-4,5-dimethyl-4,5-dihydro-imidazole-1-carbonyl}-piperazin-1-yl)-acetamide]",7.77
